The values that follow come from patent US11560381B1, “Compounds and uses thereof” (Foghorn Therapeutics Inc., priority 2019, dated 2023).

The target in assay [1] is 3×FLAG-NLuc-BRD9 (Nano luciferase-BRD9 fusion protein) in SYO-1 cells (Homo sapiens (Human), UniProt Q9H8M2). Description: SYO1 BRD9 NanoLuc degradation assay. The class given is cell-based. Particulars: SYO-1 cells expressing 3×FLAG-NLuc-BRD9, 6 hours incubation, read-out: SYO1 BRD9-NanoLuc degradation IC50. The method, then:
Procedure: A stable SYO-1 cell line expressing 3×FLAG-NLuc-BRD9 was generated. On day 0 cells were seeded in 30 μL media into each well of 384-well cell culture plates. The seeding density was 8000 cells/well. On day 1, cells were treated with 30 nL DMSO or 30 nL of 3-fold serially DMSO-diluted compounds (10 points in duplicates with 1 μM as final top dose). Subsequently plates were incubated for 6 hours in a standard tissue culture incubator and equilibrated at room temperature for 15 minutes. Nanoluciferase activity was measured by adding 15 μL of freshly prepared Nano-Glo Luciferase Assay Reagent (Promega N1130), shaking the plates for 10 minutes and reading the bioluminescence using an EnVision reader.
Results: The Inhibition % was calculated using the following formula: % Inhibition=100×(LuMHC−Lumsample)/(LumHC−LumLC). DMSO treated cells are employed as High Control (HC) and 1 μM of a known BRD9 degrader standard treated cells are employed as Low Control (LC).

For assay [2], the target named is BRD9 bromodomain (Flag-BRD9 P133-K239) (Homo sapiens (Human), UniProt Q9H8M2). Description: BRD9 bromodomain TR-FRET competition binding assay. The note with it: Table 4; 3 nM Flag-BRD9, 3.75 nM biotinylated ligand, 90 minutes at room temperature. How it is done: Procedure: His-Flag-BRD9 (P133-K239; Swiss Prot Q9H8M2; SEQ ID NO:1 mgsshhhhhhenlyfq/gdykddddkgslevlfqg/[…] […]) was cloned, expressed, purified, and then treated with TEV protease. Cleaved His tag was removed by purification. The binding of a biotinylated small molecule ligand of BRD9 was assessed via the LANCE® TR-FRET platform (PerkinElmer), and the compounds were assayed for inhibitory activity against this interaction.
BRD9 bromodomain (Flag-BRD9 P133-K239), sequence (Q9H8M2 133-239): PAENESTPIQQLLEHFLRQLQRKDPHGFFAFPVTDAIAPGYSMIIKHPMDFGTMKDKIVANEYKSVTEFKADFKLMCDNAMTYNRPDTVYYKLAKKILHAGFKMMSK
A mixture of biotinylated-ligand and SureLight™ Allophycocyanin-Streptavidin (APC-SA, PerkinElmer AD0201) in 50 mM HEPES (pH 7.4), 50 mM NaCl, 1 mM TCEP (pH 7), 0.01% (v/v) Tween-20, 0.01% (w/v) bovine serum albumin was added to a white 384-well PerkinElmer Proxiplate Plus plate. DMSO or 3-fold serially diluted compounds were then added to the Proxiplate followed by addition of Flag-BRD9. After a 10-minute incubation at room temperature, Eu-W1024 anti-FLAG (PerkinElmer, AD0273) was added. The final reaction mixture that contained 3.75 nM biotinylated ligand, 3 nM Flag-BRD9, 7.5 nM SureLight™ Allophycocyanin-Streptavidin, and 0.2 nM Eu-W1024 anti-FLAG was incubated at room temperature for 90 minutes.
Results: The plates were then read on a PerkinElmer Envision plate reader to determine the ratio of emission at 665 nm over 615 nm. […]
Background: In TR-FRET formats the signal depends on donor and acceptor labels being close together.

Assay [3] concerns SYO1 cells. Description: Cell cycle analysis (Click-iT Plus EdU Flow Cytometry Assay). In kind it is cell-based. Particulars: SYO1, 200 nM or 1 μM, 8 or 13 days, compared to DMSO and lenalidomide. The method, then: Procedure: SYO1 cells were treated for 8 or 13 days with DMSO, a BRD9 degrader (Compound 1) at 200 nM or 1 μM, or an E3 ligase binder (lenalidomide) at 200 nM. Compounds were refreshed every 5 days. Cell cycle analysis was performed using the Click-iT™ Plus EdU Flow Cytometry Assay (Invitrogen). The apoptosis assay was performed using the Annexin V-FITC Apoptosis Detection Kit (Sigma A9210). Assays were performed according to the manufacturer's protocol.
In general terms: In flow cytometry, cells or beads pass a laser one at a time.

The test system of assay [4] is synovial sarcoma cell lines (SYO1, Yamato, HS-SY-II, ASKA). Description: Growth of synovial sarcoma cell lines (IncuCyte confluency, crystal violet, colony imaging). The class given is cell-based. The note with it: 1 μM or indicated concentrations, FIGS. 5, 6, 7. How it is done:
Cells were treated with DMSO or the BRD9 degrader, Compound 1, at indicated concentrations, and proliferation was monitored from day 7 to day 14 by measuring confluency overtime using an IncuCyte live cell analysis system (FIG. 5). Growth medium and compounds were refreshed every 3-4 days.
(§1) Cells were seeded into 12-well plates and treated with DMSO, 1 μM BRD9 inhibitor, Compound 2 (also known as BI-7273, see Martin et al, J Med Chem. 59(10):4462-4475 (2016); see structure of Compound 2 below), or 1 μM BRD9 degrader, Compound 1.
(§2) The number of cells was optimized for each cell line. Growth medium and compounds were refreshed every 3-5 days. SYO1, Yamato, A549, 293T and HS-SY-II cells were fixed and stained at day 11. ASKA cells were fixed and stained at day 23. Staining was done by incubation with crystal violet solution (0.5 g Crystal Violet, 27 ml 37% Formaldehyde, 100 mL 10×PBS, 10 mL Methanol, 863 dH20 to 1 L) for 30 min followed by 3× washes with water and drying the plates for at least 24 h at room temperature. Subsequently plates were scanned on an Odyssey CLx Imaging system (FIG. 6).
(§3) Cells were seeded into 96-well ultra low cluster plate (Costar, #7007) in 200 μL complete media and treated at day 2 with DMSO, Staurosporin, or BRD9 degarder, Compound 1, at indicated doses (FIG. 7). Media and compounds were changed every 5 d and cell colonies were imaged at day 14.

Assay [5] deals with synovial sarcoma cell lines (SYO1, HS-SY-II, ASKA). The experiment in a line: Growth of synovial sarcoma cell lines, 14-day crystal violet staining. The class given is cell-based. Particulars: for inhibition of cell growth: SYO1, HS-SY-II, ASKA, treated daily, day 14, FIG. 8. How it is done:
(§4) Procedure: Cells were seeded into 6-well or 12-well plates and were treated daily with a BRD9 degrader (Compound 1), a bromo-domain BRD9 binder (Compound 2), E3 ligase binder (lenalidomide), DMSO, or staurosporin (positive control for cell killing), at indicated concentrations. The number of cells was optimized for each cell line. Growth media was refreshed every 5 days. By day 14, medium was removed, cells were washed with PBS, and stained using 500 μL of 0.005% (w/v) crystal violet solution in 25% (v/v) methanol for at least 1 hour at room temperature. Subsequently plates were scanned on an Odyssey CLx Imaging system.

Assay [6] deals with non-synovial control cancer cell lines (293T, A549, G401). The experiment in a line: Growth of non-synovial control cancer cell lines (crystal violet, colony imaging). In kind it is cell-based. The note with it: FIGS. 5, 6, 7. How it is done: as §1, §2, §3
The test system of assay [7] is non-synovial control cancer cell lines (RD, HCT116, Calu6). The experiment in a line: Growth of non-synovial control cancer cell lines, 14-day crystal violet staining. The class given is cell-based. Particulars: treated daily, day 14, FIG. 9. The method, then:
as §4

SMILES strings stand for the structures. Read-outs that look alike come from different tables or passages of the source.

3×FLAG-NLuc-BRD9 (Nano luciferase-BRD9 fusion protein) in SYO-1 cells, sequence (Q9H8M2 whole entry, the tested form may be a part): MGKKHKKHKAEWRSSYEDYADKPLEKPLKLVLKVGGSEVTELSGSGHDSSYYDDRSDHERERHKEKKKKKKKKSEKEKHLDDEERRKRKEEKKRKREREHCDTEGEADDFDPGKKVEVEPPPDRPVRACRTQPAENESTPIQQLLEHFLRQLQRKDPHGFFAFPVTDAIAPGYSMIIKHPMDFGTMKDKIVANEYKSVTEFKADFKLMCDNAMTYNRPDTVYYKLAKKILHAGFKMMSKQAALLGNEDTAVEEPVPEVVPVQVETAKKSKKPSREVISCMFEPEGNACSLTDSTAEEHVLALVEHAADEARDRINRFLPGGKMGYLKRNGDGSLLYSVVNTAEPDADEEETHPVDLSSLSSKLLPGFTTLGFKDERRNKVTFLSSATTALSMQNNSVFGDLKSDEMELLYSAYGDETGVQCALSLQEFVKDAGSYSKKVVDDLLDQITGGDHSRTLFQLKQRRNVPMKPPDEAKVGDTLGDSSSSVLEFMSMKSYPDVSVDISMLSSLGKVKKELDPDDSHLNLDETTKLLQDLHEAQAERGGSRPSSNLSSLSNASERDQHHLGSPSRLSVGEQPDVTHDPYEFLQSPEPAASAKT

In the case of `COc1cc(-c2cc(C(F)F)c(=O)n(C)c2)cc(OC)c1CN1CC(C#Cc2ccc3c(c2)C(=O)N(C2CCC(=O)NC2=O)C3)C1` (stereo not drawn) [Compound D439], in assay [1] (Table 5C), the DC50 was under 10 nM.

Regarding `COc1cc(-c2cn(C)c(=O)c3c[nH]nc23)cc(OC)c1CN1CCC2(CC1)CN(c1ccc3c(c1)C(=O)N(C1CCC(=O)NC1=O)C3)C2` (stereo not drawn) [Compound D420], in assay [1] (Table 5C), the DC50 was under 10 nM. On the same count and under the same terms, then `COc1cc(-c2cn(C)c(=O)c3[nH]ccc23)cc(OC)c1CN1CCC2(CC1)CN(c1ccc3c(c1)C(=O)N(C1CCC(=O)NC1=O)C3)C2` (stereo not drawn) [Compound D419], with under 10 nM. For `COc1cc(-c2cn(C)c(=O)c3cnccc23)cc(OC)c1CN1CCC(COC2CCN(C(=O)CCOCCOc3cccc4c3C(=O)N(C3CCC(=O)NC3=O)C4=O)C2)CC1` (stereo not drawn) [Compound D94], the IC50 – broadly, the concentration at which inhibition is half-maximal – in assay [2] fell in the range of 10 to 100 nM. Further, in assay [1] (Table 5A), the DC50 is 10 to 100 nM. Take `COc1cc(-c2cn(C)c(=O)c3cnccc23)cc(OC)c1CN(C)CCCCN1CC2(CCN(c3ccc4c(c3)C(=O)N(C3CCC(=O)NC3=O)C4=O)C2)C1` (stereo not drawn) [Compound D248]: the DC50 in assay [1] (Table 5B) fell in the range of 10 to 100 nM. In the case of `COc1cc(-c2cn(C)c(=O)c3cnccc23)cc(OC)c1CN(C)CC(=O)NCCOCCOCCNc1cccc2c1C(=O)N(C1CCC(=O)NC1=O)C2=O` (stereo not drawn) [Compound 1], the “numbers of cells in the S-phase of the cell cycle” value in assay [3] is listed as “reduced numbers of cells in the S-phase of the cell cycle”. The “inhibition of cell growth” value in assay [4] was “inhibition of the growth of the cells”; in assay [5] it was “inhibition of the growth of the cells”; in assay [6], “does not result in inhibition of the growth”; in assay [7], “did not result in inhibition of the growth”. Besides, the “growth inhibition compared among tested agents” value in assay [5] (all synovial cell lines, versus Compound 2 and lenalidomide) is recorded as “most significant growth inhibition in all synovial cell lines”.

Turning to `COc1cc(-c2cc(C)c(=O)n(C)c2)cc(OC)c1CN1CC(C)(C#Cc2ccc3c(c2)C(=O)N(C2CCC(=O)NC2=O)C3)C1` (stereo not drawn) [Compound D450], in assay [1] (Table 5C), the DC50 was under 10 nM.

Take `COc1cc(-c2cn(C)c(=O)c3cnccc23)cc(OC)c1CN1CCC2(CC1)CCN(C(=O)CCC#Cc1ccc3c(c1)C(=O)N(C1CCC(=O)NC1=O)C3=O)C2` (stereo not drawn) [Compound D220]: in assay [1] (Table 5B), the DC50 is under 10 nM. For `COc1cc(-c2cn(C)c(=O)c3cnccc23)cc(OC)c1CN(C)C` [Compound 2], the “inhibition of cell growth” value was “inhibition of the growth of the cells” in assay [4], “inhibition of the growth of the cells” in assay [5], “does not result in inhibition of the growth” in assay [6] and “did not result in inhibition of the growth” in assay [7]. `COc1cc(-c2cn(C)c(=O)c3cnccc23)cc(OC)c1CN1CC(n2cc(COCc3ccc4c(c3)C(=O)N(C3CCC(=O)NC3=O)C4=O)nn2)C1` (stereo not drawn) [Compound D298]: the DC50 in assay [1] (Table 5B) is under 10 nM. In assay [2], `COc1cc(-c2cn(C)c(=O)c3cnccc23)cc(OC)c1CN1CC2(CCN(C(=O)CCOCCOc3cccc4c3C(=O)N(C3CCC(=O)NC3=O)C4=O)C2)C1` (stereo not drawn) [Compound D90] had an IC50 of under 10 nM. Besides, in assay [1] (Table 5A), the DC50 was in the range of 10 to 100 nM. Take `C/C=C/Cn1cc(-c2ccc(CN3CCN(S(=O)(=O)c4ccc5c(c4)C(=O)N(C4CCC(=O)NC4=O)C5)CC3)c(Cl)c2)n2cncc2c1=O` (stereo not drawn) [Compound D464]: in assay [1] (Table 5C), the DC50 was at least 1000 nM. The same measure, in the same setting: then `COc1cc(-c2cc(C)c(=O)n(C)c2)cc(OC)c1CN1CC(C#Cc2ccc3c(c2)C(=O)N(C2CCC(=O)NC2=O)C3)C1C` (stereo not drawn) [Compound D453], with under 10 nM. As for `COc1cc(-c2cn(C)c(=O)c3cnccc23)cc(OC)c1CN(C)CCCCNC1CC2(CCN(c3ccc4c(c3)C(=O)N(C3CNC(=O)CC3=O)C4=O)CC2)C1` (stereo not drawn) [Compound D247], the DC50 in assay [1] (Table 5B) is under 10 nM.
